For data set [1], the target named is T1, Bcl-2 protein (Homo sapiens, UniProt P10415, DELINS35-91DVEENRTEAPEGTESE, form not given).
T1 construct: fused on or other part: A short piece of the Bcl-xL (Q07817) loop replaces Bcl-2 loop residues 35-91; The C-terminal membrane anchor is absent
Put plainly: Bcl-2 binding affinity, fluorescence polarization with fluorescein-labeled BAX peptide. The note with it: Wang's equation, read-out: Target Binding Affinity Ki (Bcl-2). (In general: Polarisation of emitted light reports the rotation of a fluorescent probe.)

Data set [2] concerns the target Bcl-XL protein (Homo sapiens, UniProt Q07817). The data set can be described thus: Bcl-XL binding affinity, fluorescence polarization with fluorescein-labeled BAD peptide. The note with it: Wang's equation, read-out: Target Binding Affinity Ki (Bcl-XL).
Data set [3] deals with NCI-H146 human small cell lung carcinoma cells. The data set can be described thus: Cellular efficacy in human tumor cell line (MTS viability assay). It counts as cell-based. The note with it: NCI-H146, 10% human serum, 48 hours. The procedure:
NCI-H146 (ATCC, Manassas, Va.) human small cell lung carcinoma cells were plated 50,000 cells per well in 96-well tissue culture plates in a total volume of 100 μL tissue culture medium supplemented with 10% human serum (Invitrogen, Carlsbad, Calif.) instead of fetal bovine serum and treated with a 2-fold serial dilution of the compounds of interest from 10 μM to 0.020 μM. Each concentration was tested in duplicate at least 3 separate times. The number of viable cells following 48 hours of compound treatment was determined using the CellTiter 96® AQueous non-radioactive cell proliferation MTS assay according to manufacturer's recommendations (Promega Corp., Madison, Wis.).
(In general: Tetrazolium dyes change colour on reduction, which living cells bring about.)

A short description of data set [4]: Pharmacokinetic evaluation in rat. The class given is in vivo. The note with it: male, Sprague-Dawley, plasma; for AUC(0-inf): single 5 mg/kg oral dose, Table 1, read-out: Pharmacokinetic area under the plasma concentration Curve (rat) AUC0-∞. The procedure:
The pharmacokinetic behavior of compounds of this disclosure was determined following a single 2 mg/kg intravenous or 5 mg/kg oral dose in male Sprague-Dawley derived rats (n=3 per group). The compounds were prepared as 2 mg/mL solution in a 10% DMSO in PEG-400 formulation for both oral and intravenous administration. The 1 mL/kg intravenous dose was administered as a slow bolus (about 1-2 minutes) in the jugular vein of a rat under light ether anesthetic. The oral dose was administered by gavage. Serial blood samples were obtained from a tail vein of each rat prior 0.1 (IV only), 0.25, 0.5, 1, 1.5, 2, 3, 4, 6, 8 and 24 hours after dosing. The heparinized samples were thoroughly mixed and placed in an ice bath. Plasma was separated by centrifugation and stored frozen prior to analysis.
The compounds of interest were separated from the plasma using protein precipitation with acetonitrile. A plasma (100-200 μL, sample or spiked standard) aliquot was combined with 50 μL of internal standard (structurally related analog prepared in acetonitrile) and 1 ml acetonitrile in a 96-well polypropylene deep well plate. The plates were vortexed for 30 seconds followed by centrifugation (3500 rpm×15 minutes, 4° C.). In an automated manner, the supernatant was transferred to a clean 96-well plate. The samples were evaporated to near dryness on a Micro-Vap™ under a stream of dry nitrogen over low heat (˜37° C.). The samples were reconstituted vortexing with 0.2 mL 5% DMSO in acetonitrile. A 0.1-0.2 ml aliquot of acetonitrile: 0.1% trifluoroacetic acid (20:80, by volume) was added to each well, followed by an additional 30 second vortexing. The plates were centrifuged (3500 rpm×15 minutes, 4° C.) prior to HPLC-MS/MS analysis. Samples were analyzed simultaneously with spiked plasma standards. All samples from each study were analyzed as a single batch on the LC-MS/MS.
The compounds of interest and the internal standard were separated from each other and co-extracted contaminants on a 50×3 mm Keystone Betasil CN 5 μm column with an acetonitrile: 0.1% trifluoroacetic acid mobile phase (50:50, by volume) at a flow rate of 0.7 ml/min. Analysis was performed on a Sciex API 300™ Biomolecular Mass Analyzer using a heated nebulizer interface. Peak areas of the title compounds and internal standards were determined using the Sciex MacQuan™ software. Calibration curves were derived from peak area ratio (parent drug/internal standard) of the spiked rat plasma standards using least squares linear regression of the ratio versus the theoretical concentration. The methods were generally linear over the range of the standard curve (correlation coefficients >0.99) with an estimated quantitation limit of 0.01 μg/mL. The plasma concentration data for each animal were submitted to multi-exponential curve fitting using WinNonlin. The area under the plasma concentration-time curve from 0 to t hours (time of the last measurable plasma concentration) after dosing (AUC0-t) was calculated using the linear trapezoidal rule for the plasma concentration-time profiles. The residual area extrapolated to infinity, determined as the final measured plasma concentration (Ct) divided by the terminal elimination rate constant (β), was added to AUC0-t to produce the total area under the curve (AUC0-∞). Ki values shown in the tables below were determined using Wang's equation (Wang Z X., An Exact Mathematical Expression For Describing Competitive Binding Of Two Different Ligands To A Protein Molecule. FEBS Lett. 1995; 360:111-4)).

The mark [5] stands for this setting: Table 1, read-out: NCI-H146 Cellular Efficacy EC50.

We go through 10 compounds from patent US8624027B2, “Combination therapy for treating cancer and diagnostic assays for use therein” (AbbVie Inc., priority 2005, dated 2014).

Structures are written as SMILES. Where two headings read alike, the source gives them in different places.

T1 sequence (P10415 with tags, fused parts or gaps with the stated changes): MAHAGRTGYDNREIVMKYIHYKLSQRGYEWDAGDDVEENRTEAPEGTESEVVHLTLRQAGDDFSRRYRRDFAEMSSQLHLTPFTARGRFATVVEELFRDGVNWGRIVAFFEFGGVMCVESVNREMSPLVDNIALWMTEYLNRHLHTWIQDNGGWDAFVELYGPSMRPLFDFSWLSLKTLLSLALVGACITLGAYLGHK
Chain of Bcl-XL protein (Q07817 with tags, fused parts or gaps DEL45-84): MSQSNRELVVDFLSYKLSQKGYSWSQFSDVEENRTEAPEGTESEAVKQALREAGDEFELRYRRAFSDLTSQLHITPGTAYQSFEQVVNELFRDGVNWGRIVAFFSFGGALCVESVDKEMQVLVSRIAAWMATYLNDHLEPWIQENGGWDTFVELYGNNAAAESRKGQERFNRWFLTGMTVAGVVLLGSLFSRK

As for `O=C(NS(=O)(=O)c1ccc(N[C@H](CCN2CC3CC2CO3)CSc2ccccc2)c(S(=O)(=O)C(F)(F)F)c1)c1ccc(N2CCN(CC3=C(c4ccc(Cl)cc4)CCCCC3)CC2)cc1` (stereo partly drawn) [Example 12, N-(4-(4-((2-(4-chlorophenyl)cyclohept-1-en-1-yl)methyl)piperazin-1-yl)benzoyl)-4-(((1R)-3-(2-oxa-5-azabicyclo[2.2.1]hept-5-yl)-1-((phenylsulfanyl)methyl)propyl)amino)-3-((trifluoromethyl)sulfonyl)benzenesulfonamide], the inhibition constant Ki in data set [1] and in data set [2] was at most 1 nM throughout. Also, the half-maximal effective concentration (EC50) – broadly, the midpoint of the concentration-response curve – in data set [3] (setting [5]) is 27.1 nM. For the same compound, the AUC(0-inf) in data set [4] turned out to be 2.07 µM·h.

`O=C(NS(=O)(=O)c1ccc(N[C@H](CCN2CC3CC2CO3)CSc2ccccc2)c(S(=O)(=O)C(F)(F)Cl)c1)c1ccc(N2CCN(CC3=C(c4ccc(Cl)cc4)CCCCC3)CC2)cc1` (stereo partly drawn) [Example 13, 3-((chloro(difluoro)methyl)sulfonyl)-N-(4-(4-((2-(4-chlorophenyl)cyclohept-1-en-1-yl)methyl)piperazin-1-yl)benzoyl)-4-(((1R)-3-(2-oxa-5-azabicyclo[2.2.1]hept-5-yl)-1-((phenylsulfanyl)methyl)propyl)amino)benzenesulfonamide]: the Ki in data set [1] and in data set [2] was at most 1 nM in each case. Besides, in data set [3] (setting [5]), the half-maximal effective concentration (EC50) was 19 nM. For the same compound, the AUC(0-inf) in data set [4] turned out to be 2.06 µM·h.

Take `CC(C)N(C)CC[C@H](CSc1ccccc1)Nc1ccc(S(=O)(=O)NC(=O)c2ccc(N3CCN(CC4=C(c5ccc(Cl)cc5)CC(C)(C)CC4)CC3)cc2)cc1S(=O)(=O)C(F)(F)F` [Example 14, N-(4-(4-((2-(4-chlorophenyl)-4,4-dimethylcyclohex-1-en-1-yl)methyl)piperazin-1-yl)benzoyl)-4-(((1R)-3-(isopropyl(methyl)amino)-1-((phenylsulfanyl)methyl)propyl)amino)-3-((trifluoromethyl)sulfonyl)benzenesulfonamide]: the inhibition constant Ki in data set [1] and in data set [2] was at most 1 nM in each case. Further, the half-maximal effective concentration (EC50) in data set [3] (setting [5]) is 30.9 nM. In addition, the AUC(0-inf) in data set [4] was 3.42 µM·h.

Regarding `O=C(NS(=O)(=O)c1ccc(N[C@H](CCN2CCCOCC2)CSc2ccccc2)c(S(=O)(=O)C(F)(F)F)c1)c1ccc(N2CCN(CC3=C(c4ccc(Cl)cc4)CCCC3)CC2)cc1` [Example 15, N-(4-(4-((2-(4-chlorophenyl)cyclohex-1-en-1-yl)methyl)piperazin-1-yl)benzoyl)-4-(((1R)-3-(1,4-oxazepan-4-yl)-1-((phenylsulfanyl)methyl)propyl)amino)-3-((trifluoromethyl)sulfonyl)benzenesulfonamide], the Ki in data set [1] and in data set [2] was at most 1 nM throughout. For the same compound, the 50% effective concentration (EC50) in data set [3] (setting [5]) is 9.9 nM. In addition, the AUC(0-inf) in data set [4] was 1.25 µM·h.

For the compound `O=C(NS(=O)(=O)c1ccc(N[C@H](CCN2CCCCCC2)CSc2ccccc2)c(S(=O)(=O)C(F)(F)F)c1)c1ccc(N2CCN(CC3=C(c4ccc(Cl)cc4)CCCC3)CC2)cc1` [Example 16, 4-(((1R)-3-(azepan-1-yl)-1-((phenylsulfanyl)methyl)propyl)amino)-N-(4-(4-((2-(4-chlorophenyl)-1-cyclohex-1-en-1-yl)methyl)piperazin-1-yl)benzoyl)-3-((trifluoromethyl)sulfonyl)benzenesulfonamide], the Ki in data set [1] and in data set [2] was at most 2 nM each time. For the same compound, the EC50 in data set [3] (setting [5]) turned out to be 37.4 nM. The AUC(0-inf) in data set [4] was found to be 2.37 µM·h.

Take `CN(C)CC[C@H](CSc1ccccc1)Nc1ccc(S(=O)(=O)NC(=O)c2ccc(N3CCN(CC4=C(c5ccc(Cl)cc5)CCCCC4)CC3)cc2)cc1S(=O)(=O)C(F)(F)F` [Example 17, N-(4-(4-((2-(4-chlorophenyl)cyclohept-1-en-1-yl)methyl)piperazin-1-yl)benzoyl)-4-(((1R)-3-(dimethylamino)-1-((phenylsulfanyl)methyl)propyl)amino)-3-((trifluoromethyl)sulfonyl)benzenesulfonamide]: the inhibition constant (Ki) in data set [1] and in data set [2] was at most 1 nM each time. Further, the EC50 in data set [3] (setting [5]) was 28.7 nM. Further, the AUC(0-inf) in data set [4] worked out at 0.88 µM·h.

As for `CN(C)CC[C@H](CSc1ccccc1)Nc1ccc(S(=O)(=O)NC(=O)c2ccc(N3CCN(CC4=C(c5ccc(Cl)cc5)CCCC4)CC3)cc2)cc1S(=O)(=O)C(F)(F)Cl` [Example 18, 3-((chloro(difluoro)methyl)sulfonyl)-N-(4-(4-((2-(4-chlorophenyl)cyclohex-1-en-1-yl)methyl)piperazin-1-yl)benzoyl)-4-(((1R)-3-(dimethylamino)-1-((phenylsulfanyl)methyl)propyl)amino)benzenesulfonamide], the Ki in data set [1] and in data set [2] was at most 1 nM in each case. The concentration giving a half-maximal response (EC50) in data set [3] (setting [5]) was 15.4 nM; in data set [3] (Table 3, read-out: NCI-H146 Cellular Efficacy H146 EC50) it was 15 nM. The AUC in data set [4] (5 mg/kg, oral, Table 3, read-out: Pharmacokinetic area under the plasma concentration Curve (rat) AUC) was 0.609 µM·h. Moreover, the Cmax in data set [4] (5 mg/kg, oral, Table 3, read-out: Pharmacokinetic peak plasma concentration (rat) Cmax) came out at 59 nM. In addition, in data set [4], the AUC(0-inf) was found to be 0.61 µM·h.

`CC1(C)CCC(c2ccc(Cl)cc2)=C(CN2CCN(c3ccc(C(=O)NS(=O)(=O)c4ccc(N[C@H](CCN5CCOCC5)CSc5ccccc5)c(S(=O)(=O)C(F)(F)Cl)c4)cc3)CC2)C1` [Example 19, 3-((chloro(difluoro)methyl)sulfonyl)-N-(4-(4-((2-(4-chlorophenyl)-5,5-dimethylcyclohex-1-en-1-yl)methyl)piperazin-1-yl)benzoyl)-4-(((1R)-3-(morpholin-4-yl)-1-((phenylsulfanyl)methyl)propyl)amino)benzenesulfonamide]: the Ki in data set [1] and in data set [2] was at most 1 nM throughout. For the same compound, the concentration for a half-maximal effect (EC50) in data set [3] (setting [5]) came to 15.8 nM. For the same compound, the AUC(0-inf) in data set [4] is 7.12 µM·h.

Take `CN(C)CC[C@H](CSc1ccccc1)Nc1ccc(S(=O)(=O)NC(=O)c2ccc(N3CCN(CC4=C(c5ccc(Cl)cc5)CCC(C)(C)C4)CC3)cc2)cc1S(=O)(=O)C(F)(F)F` [Example 20, N-(4-(4-((2-(4-chlorophenyl)-5,5-dimethyl-1-cyclohex-1-en-1-yl)methyl)piperazin-1-yl)benzoyl)-4-(((1R)-3-(dimethylamino)-1-((phenylsulfanyl)methyl)propyl)amino)-3-((trifluoromethyl)sulfonyl)benzenesulfonamide]: the inhibitory constant (Ki) in data set [1] and in data set [2] was at most 1 nM in each case. In addition, the EC50 in data set [3] (setting [5]) turned out to be 27.7 nM. Besides, in data set [4], the AUC(0-inf) is 3.11 µM·h.

Turning to `O=C(NS(=O)(=O)c1ccc(N[C@H](CCN2CCOCC2)CSc2ccccc2)c(S(=O)(=O)C(F)(F)F)c1)c1ccc(N2CCN(CC3=C(c4ccc(Cl)cc4)CCOC3)CC2)cc1` [Example 21, N-(4-(4-((4-(4-chlorophenyl)-5,6-dihydro-2H-pyran-3-yl)methyl)piperazin-1-yl)benzoyl)-4-(((1R)-3-(morpholin-4-yl)-1-((phenylsulfanyl)methyl)propyl)amino)-3-((trifluoromethyl)sulfonyl)benzenesulfonamide], the Ki in data set [1] and in data set [2] was at most 1 nM throughout. Besides, in data set [3] (setting [5]), the EC50 was 64.3 nM. Besides, the AUC(0-inf) in data set [4] is 1.81 µM·h.
